Several values for one entry are separate records, joined by “and”; a condition that tells them apart may be missing. Equal entries are not always repeated.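 Growth conditions: 96-well plates. Treatment: test compound, 48 hours, 5 concentrations. Analysis: linear interpolation between bracketing concentrations; unreached endpoints set to highest concentration. GI50 marks 50% less growth. TGI marks complete inhibition of growth.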
Key:
Test in all cases: NCI anticancer screen, dose series, 48 h
[1] = system: 786-0 renal
[2] = system: CCRF-CEM leukemia
[3] = system: COLO 205 colon
[4] = system: DU-145 prostate
[5] = system: HOP-92 NSCLC
[6] = system: KM12 colon
[7] = system: NCI-H522 lung
[8] = system: RPMI-8226 leukemia
[9] = system: SK-MEL-28 melanoma
[10] = system: TK-10 renal

Row | SMILES | TGI [1] | TGI [2] | TGI [3] | TGI [4] | TGI [5] | TGI [6] | TGI [7] | TGI [8] | TGI [9] | TGI [10] | GI50 [1] | GI50 [2] | GI50 [3] | GI50 [4] | GI50 [5] | GI50 [6] | GI50 [7] | GI50 [8] | GI50 [9] | GI50 [10]
1 | COc1ccc(/C=C/c2cnnc3ccccc23)cc1OC | > 10 µM | > 10 µM | > 10 µM | > 10 µM | > 10 µM | > 10 µM | > 10 µM | > 10 µM | > 10 µM | > 10 µM | – | – | – | – | – | – | – | – | – | –
2 | COc1cc2c(cc1OC)-c1c(c3ccc([N+](=O)[O-])cc3c(=O)n1CCCBr)C2=O | > 100 µM | 67.7 µM | > 100 µM | > 100 µM | > 100 µM | > 100 µM | > 100 µM | > 100 µM | > 100 µM | > 100 µM | 2.93 µM | 0.425 µM | > 100 µM | 24.5 µM | > 100 µM | 29.8 µM | 6.41 µM | 3.33 µM | > 100 µM | > 100 µM
3 | COc1cc(Nc2nccc(-c3cnn4ncccc34)n2)cc(OC)c1 | > 17.6 µM | – | 0.164 µM | 2.82 µM | 0.151 µM | 0.272 µM | 0.619 µM | 0.388 µM | 0.38 µM | 0.406 µM | 0.0861 µM | 0.0668 µM | 0.0553 µM | 0.0724 µM | 0.0317 µM | 0.0349 µM | 0.079 µM | 0.0862 µM | 0.0726 µM | 0.0982 µM
4 | CCc1cc(Cc2cc(CC)cc(C(C)(C)C)c2O)c(O)c(C(C)(C)C)c1 | 14.4 µM | > 100 µM | 3.56 µM | 13 µM | 7.97 µM | 6.35 µM | 8.29 µM | 28.4 µM | 7.53 µM | 9.41 µM | 3.5 µM | 5.16 µM | 1.89 µM | 3.53 µM | 2.25 µM | 2.28 µM | 2.38 µM | 3.35 µM | 2.39 µM | 3.03 µM
5 | COC(=O)c1cccc(COc2ccc([N+](=O)[O-])cc2Cl)c1 | > 100 µM | > 100 µM | > 100 µM | > 100 µM | > 100 µM | > 100 µM | > 100 µM | > 100 µM | > 100 µM | > 100 µM | – | – | – | – | – | – | – | – | – | –
6 | N[C@@H](Cc1ccc(N(CCCl)CCCl)cc1)C(=O)O | 48 µM and 72.6 µM | 78.9 µM and > 96.4 µM and 66.8 µM | > 100 µM and 37.1 µM and 107 µM | 85.7 µM and 227 µM | 52.3 µM and 42 µM and 103 µM | > 100 µM and > 83.7 µM and 168 µM | 29.5 µM and 66.8 µM | 75.4 µM and > 85 µM and 183 µM | > 100 µM and 73.5 µM and 165 µM | > 100 µM and 175 µM | 13.3 µM | 2.47 µM and 1.96 µM | 23.6 µM and 18.4 µM | 18.8 µM | 11.9 µM and 15 µM | 83.9 µM and 42.7 µM | 14.4 µM | 19.3 µM and 22.7 µM | 68.2 µM and 27.3 µM | 75.3 µM
7 | N=C(N)c1ccc(-c2ccc(-c3ccccc3)o2)o1 | 3.54 µM | 12.4 µM | 3.49 µM | 11.6 µM | 4.73 µM | 9.93 µM | 3.89 µM | 8.21 µM | 4.41 µM | 11.4 µM | 1.74 µM | 3.58 µM | 1.78 µM | 3.3 µM | 1.85 µM | 2.61 µM | 1.94 µM | 2.89 µM | 1.9 µM | 3.32 µM
8 | O=P1(NCCCl)OCCC(OO)N1CCCl (centres undefined) | 99.7 µM | > 52.7 µM | > 57.3 µM | > 100 µM | 33.4 µM | > 100 µM | 25.6 µM | > 100 µM | 39.4 µM | 39.8 µM | – | – | – | – | – | – | – | – | – | –
9 | CN(CC(=O)O)Cc1c[nH]c2ccccc12 | > 100 µM | > 100 µM | > 100 µM | > 100 µM | > 100 µM | > 100 µM | > 100 µM | > 100 µM | > 100 µM | > 100 µM | – | – | – | – | – | – | – | – | – | –
